Assays:
[1] = test system: large crabgrass; assay: Large crabgrass control with nicosulfuron as influenced by adjuvants (greenhouse); format: in vivo; conditions: nicosulfuron 0.2 oz/A, no adjuvant, 3 WAT
Description: TABLE 2 includes the results of assessment made 3 WAT (weeks after treatment). Visible injury rating is on a scale 0 to 100% with 0% representing no visible injury and 100% complete kill.

[2] = test system: green foxtail; assay: Green foxtail control with nicosulfuron as influenced by adjuvants (greenhouse); format: in vivo; conditions: nicosulfuron 0.04 oz/A, no adjuvant; 2 WAT
Description: TABLE 3 includes the results of assessment made 2 WAT (weeks after treatment).

## COc1cc(OC)nc(NC(=O)NS(=O)(=O)c2ncccc2C(=O)N(C)C)n1 [nicosulfuron]
[1]
  % fresh weight reduction: 57%
[1]; scale 0-100%
  % visible injury: 31%
[2]
  % fresh weight reduction: 0%

From US6642178B2, “Adjuvant blend for enhancing efficacy of pesticides” (priority 2001, dated 2003)
